Source: the NIST ThermoML archive (doi:10.1016/j.fluid.2009.04.006)
Values joined by “and” are separate entries in the source; they are usually repeats but may differ in a detail not shown here. Equal entries are not always repeated. Numbers after ± are expanded uncertainties.

Conditions: Liquid, Closed cell (Static) method

CN1CCOCC1 [N-methylmorpholine]
Conditions | vapor or sublimation pressure
273.18 K | 6.9 ± 0.41 kPa
283.12 K | 12.94 ± 0.78 kPa and 12.93 ± 0.78 kPa
293.06 K | 23.06 ± 1.4 kPa
303.04 K | 39.34 ± 2.4 kPa
313.05 K | 64.46 ± 3.9 kPa
323.08 K | 101.73 ± 6.1 kPa
333.07 K | 155.32 ± 9.3 kPa
343.08 K | 230.31 ± 14 kPa
353.08 K | 332.76 ± 20 kPa

OCCNCc1ccccc1 [2-benzylaminoethanol]
Conditions | vapor or sublimation pressure
292.82 K | 0.000782 ± 0.00011 kPa
312.85 K | 0.0052 ± 0.00038 kPa
332.88 K | 0.0271 ± 0.0018 kPa
332.89 K | 0.027 ± 0.0018 kPa
352.92 K | 0.114 ± 0.007 kPa
362.91 K | 0.239 ± 0.015 kPa and 0.231 ± 0.014 kPa

CN(C)CCN(C)C [N,N,N',N'-tetramethyl-1,2-diaminoethane]
Conditions | vapor or sublimation pressure [kPa]
294.75 K | 1.766 ± 0.11
304.74 K | 3.055 ± 0.18
314.76 K | 5.055 ± 0.3
324.95 K | 8.115 ± 0.49
334.99 K | 12.53 ± 0.75
344.96 K | 19.34 ± 1.2
354.98 K | 28.12 ± 1.7
364.97 K | 40.04 ± 2.4

NCCOCCOCCN [1,2-bis(2-aminoethoxy)ethane]
Conditions | vapor or sublimation pressure [kPa]
292.92 K | 0.00358 ± 0.00027
302.88 K | 0.00757 ± 0.00054
312.87 K | 0.0156 ± 0.0011
322.91 K | 0.0297 ± 0.0019
332.89 K | 0.0545 ± 0.0034
342.89 K | 0.104 ± 0.007
353.02 K | 0.184 ± 0.011
